Test results from PMC7501995 (Cell metabolism, 2020).

Columns and labels:
[1] = system: C57BL/6J mice rendered diabetic by multiple low-dose STZ; assay: Multiple low-dose STZ-induced diabetes in C57BL/6J mice; type: in vivo, mouse; conditions: STZ mice
[2] = system: human subjects with T1D; conditions: ref Ovalle et al., 2018; cited from earlier work

With `OC[C@H]1O[C@@H](c2ccc(Cl)c(Cc3ccc(O[C@H]4CCOC4)cc3)c2)[C@H](O)[C@@H](O)[C@@H]1O` [empagliflozin, reference compound] as the compound, how does the glucose homeostasis ([1]; empagliflozin 10 mg/kg/day in drinking water) read?
The glucose homeostasis was “improved glucose homeostasis”.

With `CN(C)C(=N)N=C(N)N` [metformin, reference compound] as the compound, how does the glucose homeostasis ([1]; metformin 250 mg/kg/day in drinking water) read?
The glucose homeostasis was “improved glucose homeostasis”.

For `COc1ccc(CCN(C)CCCC(C#N)(c2ccc(OC)c(OC)c2)C(C)C)cc1OC` (stereo not drawn) [verapamil], which “effect in randomized controlled trial in human subjects with T1D” value [2] is on record?
Its value is “beneficial effects”.
